Assay results reported in patent US20100203507A1 (PROMETHEUS LABORATORIES, INC, priority 2005, published 2010).
Values joined by “and” are separate entries in the source; they are usually repeats but may differ in a detail not shown here. Equal values may be shown once.

Experiments:
[1] = tested on: RBC folate polyglutamates; test: RBC folate polyglutamate levels by radio-assay (Example 2); assay type: in vivo, human; details: for RBC folate PG decrease versus baseline / RBC folate PG levels: fourth visit
Protocol: Laboratory measurements: Red blood cell (RBC) long-chain MTXPG concentrations (MTXPG3; nmol/L RBC) were measured using a post-column photo-oxidation HPLC-fluorometry technique as described in, e.g., Dervieux et al., Clin. Chem., 49:1632-1641 (2003). RBC folate polyglutamates (Folate PGs; expressed as nmol/L RBCs) were measured using a radio-assay (Biorad; Hercules, Calif.). The MTHFR C677T polymorphism can be measured with a real-time TaqMan allelic discrimination assay as described above. The MS A2756G polymorphism, which results in an aspartic acid to glycine substitution at codon 919 of MS, can be measured with a real-time TaqMan allelic discrimination assay using the following primers and fluorogenic 3′-minor groove binding probes: forward primer: 5′-GAATACTTTGAGGAAATCATGGAAGA-3′ (SEQ ID NO:17); reverse primer: 5′-TCTGTTTCTACCACTTACCTTGAGAGACT-3′ (SEQ ID NO:18); wild-type fluorescent probe: 5′-FAM-AGA CAG GAC CAT TAT G-MGB-3′ (SEQ ID NO:19); and mutant fluorescent probe: 5′-VIC-ACA GGG CCA TTA TG-MGB-3′ (SEQ ID NO:20).

[2] = tested on: adult rheumatoid arthritis patients naive to MTX; test: Prospective longitudinal MTX dose escalation study: response (DAS28, EULAR criteria, physician's assessment VAS) (Example 2)
[3] = tested on: patients with rheumatoid arthritis; test: Cross-sectional study: occurrence of side-effects under low dose MTX therapy (Example 1); assay type: in vivo, human
Protocol: (§1) Study design: The study was cross-sectional at two investigational California sites (Cedars Sinai, Department of Rheumatology; and UCLA, Department of Rheumatology). […] Concomitant disease-modifying arthritis agents (e.g., sulphasalazine, hydroxychloroquine, leflunomide), low-dose corticosteroids (<10 mg day), and folic acid supplementation were allowed. […] Patient demographics were collected at the time of enrollment in the study. At a single study visit, EDTA blood was drawn and shipped overnight to Prometheus Laboratories in San Diego, Calif.
(§2) Clinical status assessment: Patient clinical and demographic characteristics were collected at the single study visit. Clinical efficacy was assessed using the disease activity score (DAS28), which includes the number of tender and swollen joint counts (n=28), the erythrocyte sedimentation rate, and the patient's global assessment of disease activity.
Statistical analysis: The analysis consisted of multivariate logistic regression with the occurrence of side-effects as the dependent variable.

[4] = tested on: patients with rheumatoid arthritis; test: Cross-sectional study: clinical efficacy by disease activity score DAS28 (Example 1); assay type: in vivo, human
Protocol: as §1, §2

[5] = tested on: adult rheumatoid arthritis patients naive to MTX; test: Prospective longitudinal MTX dose escalation study: occurrence of side-effects (Example 2)
Protocol: The clinical assessment at each study visit consisted of a tender and swollen joint count, a patient's assessment of disease activity (10 cm-VAS), a physician's assessment of disease activity (10 cm-VAS), and a C-Reactive protein (CRP) determination.
The occurrence of side-effects was recorded at the time of each study visit. […] Leukocyte count, hemoglobin, and liver AST were measured on the day of the study visit using standard laboratory methods. […] All data were captured on Case Report Forms using a standardized questionnaire. This consisted of the presence of nausea, dyspepsia, diarrhea, headache, lethargy, stomatitis, alopecia, and pulmonary toxicity (e.g., cough, dyspnea, pulmonary infiltrates). Patients were evaluated by the same physician at the time of each study visit. Toxicities were graded as “mild,” “moderate,” and “severe.” EDTA whole blood was drawn from each patient and shipped overnight from Albany, N.Y. to Prometheus Laboratories in San Diego, Calif.
Toxicities were analyzed using the percentage of 4-6 week periods with side-effects per patient. […] Statistical analyses were performed using the software package SAS (Release 8.2; SAS Institute Inc.; Cary, N.C.).

[6] = visit 4, generalized linear model
[7] = visit 6, generalized linear model
[8] = 97 patients, single study visit
[9] = MS 2756A/A vs. MS2756 A/G or G/G
[10] = MTHFR 1298A/C or C/C vs. MTHFR 1298A/A
[11] = MTRR 66G/G vs. MTRR 66A/A or A/G

CN(Cc1cnc2nc(N)nc(N)c2n1)c1ccc(C(=O)N[C@@H](CCC(=O)O)C(=O)O)cc1 [MTX, methotrexate]
Estimate, percentage change in DAS28 vs percentage change in folate PG levels ([1]; baseline to visit 4): 0.32±0.10
Estimate, percentage change in physician's assessment VAS vs percentage change in folate PG levels ([1]; baseline to visit 4): 0.71±0.22
Estimate, MTX dose vs decrease in RBC folate PGs ([1]; baseline to visit 6): 0.0324±0.014
Estimate, MTXPG levels vs decrease in RBC folate PGs ([1]; baseline to visit 6): −0.009±0.003
Decrease in folate levels ([1]; dose 7.5 to 15 mg/week with MTXPG increase of 40 nmol/L RBCs at visit 6, from model equation): 11.7%
Median RBC folate PG levels ([1]; fourth study visit, n=43 (initial 1222)): 1065 nmol/L RBCs
RBC folate PG decrease versus baseline ([1]; efficacy index above 1): 14%
RBC folate PG levels ([1]; efficacy index above 1): 1257 ± 70 nmol/L
RBC folate PG decrease versus baseline ([1]; efficacy index of 0): 36%
RBC folate PG levels ([1]; efficacy index of 0): 886 ± 59 nmol/L
RBC folate PG decrease versus baseline ([1]; efficacy index of 1): 42%
RBC folate PG levels ([1]; efficacy index of 1): 1168 ± 70 nmol/L
Median RBC folate PG levels ([1]; sixth visit): 994 nmol/L RBCs
Likelihood of response to MTX, decrease in RBC folate PGs vs no change or increase ([1]; visit 4): 8 fold and 7.7 fold
Estimate, lower decrease in physician's assessment in disease activity ([2]; MTHFR 677T/T genotype): 0.367
OR, lower likelihood of response to therapy ([2]; MTHFR 677T/T genotype, visit 4): 9.9
OR, therapeutic response at about 6 months when MTXPG3 greater than about 20 nmol/L RBCs at about 3 months ([2]; RBC MTXPG3): 8.0
Estimate, lower decrease in physician's assessment in disease activity ([2]; TS *2/*2 genotype): 0.360
OR, lower likelihood of response to therapy ([2]; TS *2/*2 genotype, visit 4): 3.9
Decrease in physician's assessment of disease activity compared to baseline ([2]; dose escalation 7.5 to 15 mg/week with MTXPG increase of 40 nmol/L RBCs at visit 4, from model equation): 19.8%
Patients responding to therapy ([2]; visit 4): 77%
Patients responding to therapy, number ([2]; visit 4): 36
Patients with good response, number ([2]; visit 4): 15
Patients with moderate response, number ([2]; visit 4): 11
Patients with poor response (EULAR) ([2]; visit 4): 23%
DAS28, median ([2]; visit 4 (baseline 5.1)): 3.5
Physician's assessment of disease activity 10 cm VAS, median ([2]; visit 4 (baseline 5.6)): 2.6
Estimate, RBC MTXPG level vs percentage change from baseline in physician's assessment VAS [2, 6]: −0.013±0.004
Estimate, weekly MTX dose vs percentage change from baseline in physician's assessment VAS [2, 6]: 0.043±0.017
Estimate, RBC MTXPG formation in responders vs non-responders ([2]; visit 4, generalized linear model, FIG. 3A): 0.034±0.020
Patients with poor response (EULAR), number ([2]; visit 4, median dose 15 mg/week): 11
Median decrease (from baseline) in DAS28 ([2]; visit 4, n=47): 36%
Median decrease (from baseline) in physician's assessment of disease activity VAS ([2]; visit 4, n=48): 47%
Estimate, MTX dose vs percentage change from baseline in DAS28 ([2]; visit 6): 0.011±0.051
Estimate, formation of RBC MTXPGs vs percentage change from baseline in DAS28 ([2]; visit 6): −0.003±0.001
Non-responders ([2]; visit 6): 9%
Responders with moderate response, number ([2]; visit 6): 10
Responders, number of patients ([2]; visit 6): 31
DAS28, median ([2]; visit 6 (baseline 5.1)): 3.1
Physician's assessment of disease activity 10 cm VAS, median ([2]; visit 6 (baseline 5.6)): 2.1
Estimate, RBC MTXPG levels vs percentage change from baseline in physician's assessment of disease activity [2, 7]: −0.0077±0.025
Estimate, weekly MTX dose vs percentage change from baseline in physician's assessment of disease activity [2, 7]: 0.029±0.012
Non-responders, number of patients ([2]; visit 6, median dose 17.5 mg weekly): three
Median decrease (from baseline) in DAS28 ([2]; visit 6, n=34): 41%
Median decrease (from baseline) in physician's assessment of disease activity VAS ([2]; visit 6, n=35): 52%
Responders with moderate response ([2]; visit 6, of the responders): 32%
Patients with high disease activity and side-effects, number ([3]; 97 patients): 18
Overall side-effects, number of patients ([3]; 97 patients on MTX at least one month, single study visit): 40
AST >40 U/L, % of patients [3, 8]: (6.1%)
AST >40 U/L, number of patients [3, 8]: 6
Alopecia, % of patients [3, 8]: (17.5%)
Alopecia, number of patients [3, 8]: 17
Central nervous system side-effects, % of patients [3, 8]: (11.3%)
Central nervous system side-effects, number of patients [3, 8]: 11
Diarrhea, % of patients [3, 8]: (6.2%)
Diarrhea, number of patients [3, 8]: 6
Dyspepsia, % of patients [3, 8]: (7.2%)
Dyspepsia, number of patients [3, 8]: 7
Elevation of AST twice the upper normal value, pulmonary toxicity, or hematopoietic toxicity [3, 8]: None of the patients
Gastrointestinal tract side-effects, % of patients [3, 8]: (24.7%)
Gastrointestinal tract side-effects, number of patients [3, 8]: 24
Headache, % of patients [3, 8]: (5.1%)
Headache, number of patients [3, 8]: 8
Lethargy, % of patients [3, 8]: (8.2%)
Lethargy, number of patients [3, 8]: 8
Nausea, % of patients [3, 8]: (9.2%)
Nausea, number of patients [3, 8]: 9
Severity of side-effects [3, 8]: mild and did not require MTX withdrawal
Stomatatis, % of patients [3, 8]: (3.1%)
Stomatatis, number of patients [3, 8]: 3
Patients with high disease activity also experiencing a side-effect ([3]; of patients with high disease activity, at the time of the visit): 39%
Occurrence of central nervous system side-effects ([3]; patients with MTHFR 677C/T or 677C/C genotype): 9.0%
Occurrence of central nervous system side-effects ([3]; patients with MTHFR 677T/T genotype): 62.5%
Patients presenting with a side-effect ([3]; toxicogenetic index of 0): 17%
Patients presenting with a high disease activity ([4]; 97 patients on MTX): 47%
Disease activity score (DAS28), median ([4]; 97 patients, median 30 months under methotrexate): 5.04
Patients who experienced a severe side-effect in one of the study visits, number ([5]; 2 severe lethargy, 2 severe dyspepsia): 4
Signs of hematological toxicity ([5]; 48 patients): None of the patients
AST >40 U/L: median of percentage of study visits with side-effect per patient ([5]; 48 patients, 4 to 6 visits): 0%
All side-effects: median of percentage of study visits with side-effect per patient ([5]; 48 patients, 4 to 6 visits): 50%
Alopecia: median of percentage of study visits with side-effect per patient ([5]; 48 patients, 4 to 6 visits): 0%
Alopecia: number of patients (% total) with at least one study visit with side-effect ([5]; 48 patients, 4 to 6 visits): 4 (8%)
Central nervous system: median of percentage of study visits with side-effect per patient ([5]; 48 patients, 4 to 6 visits): 25%
Central nervous system: number of patients (% total) with at least one study visit with side-effect ([5]; 48 patients, 4 to 6 visits): 30 (63%)
Cough: median of percentage of study visits with side-effect per patient ([5]; 48 patients, 4 to 6 visits): 0%
Cough: number of patients (% total) with at least one study visit with side-effect ([5]; 48 patients, 4 to 6 visits): 12 (25%)
Dyspnea: median of percentage of study visits with side-effect per patient ([5]; 48 patients, 4 to 6 visits): 0%
Dyspnea: number of patients (% total) with at least one study visit with side-effect ([5]; 48 patients, 4 to 6 visits): 1 (2.1%)
Gastrointestinal tract: median of percentage of study visits with side-effect per patient ([5]; 48 patients, 4 to 6 visits): 25%
Gastrointestinal tract: number of patients (% total) with at least one study visit with side-effect ([5]; 48 patients, 4 to 6 visits): 33 (69%)
Headache: median of percentage of study visits with side-effect per patient ([5]; 48 patients, 4 to 6 visits): 0%
Headache: number of patients (% total) with at least one study visit with side-effect ([5]; 48 patients, 4 to 6 visits): 14 (29%)
Lethargy: median of percentage of study visits with side-effect per patient ([5]; 48 patients, 4 to 6 visits): 17%
Lethargy: number of patients (% total) with at least one study visit with side-effect ([5]; 48 patients, 4 to 6 visits): 27 (56%)
diarrhea: median of percentage of study visits with side-effect per patient ([5]; 48 patients, 4 to 6 visits): 0%
diarrhea: number of patients (% total) with at least one study visit with side-effect ([5]; 48 patients, 4 to 6 visits): 15 (31%)
dyspepsia: median of percentage of study visits with side-effect per patient ([5]; 48 patients, 4 to 6 visits): 0%
dyspepsia: number of patients (% total) with at least one study visit with side-effect ([5]; 48 patients, 4 to 6 visits): 16 (33%)
nausea: median of percentage of study visits with side-effect per patient ([5]; 48 patients, 4 to 6 visits): 0%
nausea: number of patients (% total) with at least one study visit with side-effect ([5]; 48 patients, 4 to 6 visits): 22 (46%)
stomatitis: median of percentage of study visits with side-effect per patient ([5]; 48 patients, 4 to 6 visits): 0%
stomatitis: number of patients (% total) with at least one study visit with side-effect ([5]; 48 patients, 4 to 6 visits): 5 (10%)
Estimate, percentage of 4 week periods with all side-effects [5, 9]: 0.20 ± 0.09
Estimate, percentage of 4 week periods with central nervous system side-effects [5, 9]: 0.11 ± 0.09
Estimate, percentage of 4 week periods with gastrointestinal side-effects [5, 9]: 0.29 ± 0.08
Estimate, percentage of 4 week periods with all side-effects [5, 10]: 0.18 ± 0.10
Estimate, percentage of 4 week periods with central nervous system side-effects [5, 10]: 0.21 ± 0.10
Estimate, percentage of 4 week periods with gastrointestinal side-effects [5, 10]: 0.25 ± 0.09
Estimate, percentage of 4 week periods with all side-effects [5, 11]: 0.22 ± 0.10
Estimate, percentage of 4 week periods with central nervous system side-effects [5, 11]: 0.16 ± 0.09
Estimate, percentage of 4 week periods with gastrointestinal side-effects [5, 11]: 0.28 ± 0.09
Increase in MCV above 120 fl ([5]; baseline to visit 4): none of the patients
Patients requiring MTX dosage interruption, number ([5]; both at the fourth visit): Two
Estimate, MTX dose administered vs occurrence of central nervous system side-effects ([5]; generalized linear model): 0.186
Median increase in MCV from baseline ([5]; visit 4): 3.5%
Erythrocyte mean corpuscular volume (MCV), median ([5]; visit 4 (baseline 89 fl)): 93 fL
MCV of the only one patient above 120 fl ([5]; visit 6): 124 fL
Median increase in MCV ([5]; visit 6): 3.7%
